# Target: T1, human metabotropic Glutamate 4 receptor (Homo sapiens, UniProt Q14833)
# T1 construct: expressed in transfected cells; host or cells: HEK293
# Experiment: In vitro testing of mGluR4 potency (Assay A), cAMP HTRF in HEK293 cells
# Type: cell-based
# Settings: Table 2; HEK293 cell overexpressing human mGluR4; 10 uM L-Glutamic acid, 1 uM forskolin
# Method: A. In Vitro Testing of mGluR4 Potency
# The in vitro activity of the compounds according to the invention may be investigated as follows:
# The HEK293 cell overexpressing the human metabotropic Glutamate 4 receptor were thawed at 37° C. and immediately diluted with cell culture medium. After centrifugation, the cell pellet is re-suspended in medium and then distributed from a stirred spinner flask into the wells of the assay plate. The plates are incubated for one hour at room temperature before they are incubated for 24 hours at 37° C./5% C02. After washing the cells in the plate three times with 80 uL HBSS/HEPES buffer (10 uL buffer remained in the wells after washing), 5 uL per well of compounds diluted in HBSS/HEPES buffer containing 0.2% BSA (final concentration: 0.1%) and 1 mM IBMX (final concentration: 0.5 mM) are added to the wells of the assay plate. Thereafter 5 uL per well of L-Glutamic acid (final concentration: 10 uM), forskolin (final concentration: 1 uM) and 1 mM IBMX (final concentration: 0.5 mM) dissolved in HBSS/HEPES buffer containing 0.2% BSA (final concentration: 0.1%) are added to the assay plate (final DMSO concentration: 1%). Several wells of the assay plate are used either for the positive and the negative controls or for the cAMP standard curve. The assay plate is incubated for 30 minutes at room temperature. Then 5 ul per well of Anti-cAMP-Antibody-d2 solution and 5 ul per well of cAMP-Europium Cryptate dilution are added to all wells of the plate and the plate is incubated another 60 minutes light protected at room temperature. The emission at 615 nm and 665 nm (Excitation wavelength: 320 nm) are measured on the EnVision™ reader (PerkinElmer). The ratio between the emission at 665 nm and 615 is calculated by the reader. The whole assay is performed in the dark or under green light.
# The cAMP standard is prepared by diluting the cAMP stock solution with HBSS/Hepes buffer: 5 μl/well of the cAMP dilutions (in HBSS/Hepes buffer containing 1 mM IBMX and 0.2% BSA-final concentration: 0.5 mM IBMX and 0.1% BSA) are added to 10 ul/well HBSS/Hepes buffer plus 5 ul/well 4% DMSO in HBSS/Hepes containing 0.2% BSA (final DMSO concentration: 1%-like in the wells containing compounds) in the wells of the assay plate. The final cAMP concentrations in the assay plate were: 0, 0.17, 0.69, 2.78, 11.1, 44.5, 178, and 712 nM (two wells/cAMP concentration).
# Each assay microtiter plate contained also wells with vehicle controls instead of compound as controls for L-Glutamic acid induced signal (negative control; 100% CTL; 10 uM L-Glutamic acid+1 uM forskolin+0.5 mM IBMX+1% DMSO) and wells with vehicle controls without L-Glutamic acid as controls for non-specific changes in signal (positive control; 0% CTL; 0 uM L-Glutamic acid+1 uM forskolin+0.5 mM IBMX+1% DMSO).
# The analysis of the data is performed by the calculation the ratio between the emission at 665 nm and the emission at 615 nm (Em665/Em615 ratio). Thereafter the signals of the compounds are normalized using the positive and negative controls by the following formula:
# PoC=100×((Signal Sample−Positive Control)/(Negative Control−Positive Control))
# T1 sequence (Q14833 33-912): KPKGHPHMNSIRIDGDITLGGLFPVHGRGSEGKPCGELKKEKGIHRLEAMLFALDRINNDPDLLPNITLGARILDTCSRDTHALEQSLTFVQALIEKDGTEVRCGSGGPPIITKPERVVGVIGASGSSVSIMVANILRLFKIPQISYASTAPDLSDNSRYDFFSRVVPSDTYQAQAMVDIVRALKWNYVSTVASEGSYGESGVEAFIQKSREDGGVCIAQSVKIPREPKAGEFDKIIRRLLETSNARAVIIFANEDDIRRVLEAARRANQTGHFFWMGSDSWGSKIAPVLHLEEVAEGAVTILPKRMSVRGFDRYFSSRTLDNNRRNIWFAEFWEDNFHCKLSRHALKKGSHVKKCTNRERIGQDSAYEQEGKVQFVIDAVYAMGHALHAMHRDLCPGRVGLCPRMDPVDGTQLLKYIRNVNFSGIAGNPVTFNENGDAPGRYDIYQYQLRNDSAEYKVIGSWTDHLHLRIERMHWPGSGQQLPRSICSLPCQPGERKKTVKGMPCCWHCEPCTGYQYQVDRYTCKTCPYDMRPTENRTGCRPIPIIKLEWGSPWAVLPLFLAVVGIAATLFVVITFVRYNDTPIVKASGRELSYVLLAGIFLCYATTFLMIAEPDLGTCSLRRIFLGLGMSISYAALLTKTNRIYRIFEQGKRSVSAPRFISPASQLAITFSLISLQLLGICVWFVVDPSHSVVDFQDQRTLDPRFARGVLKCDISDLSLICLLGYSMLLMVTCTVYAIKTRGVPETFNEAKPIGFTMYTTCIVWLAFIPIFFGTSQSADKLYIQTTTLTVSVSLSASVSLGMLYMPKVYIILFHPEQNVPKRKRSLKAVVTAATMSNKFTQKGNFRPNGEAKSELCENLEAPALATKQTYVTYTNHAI
row,IC50,SMILES
1,2 nM,"COc1c(Br)cnc2c1nc([C@@H](NC(=O)c1cnc(C)cn1)C1CC1)n2C(C)C [Example 5, N-[(S)-[6-bromo-7-methoxy-3-(propan-2-yl)-3H-imidazo[4,5-b]pyridin-2-yl](cyclopropyl)methyl]-5-methylpyrazine-2-carboxamide]"
2,4 nM,"Cc1c(C#N)cnc2c1nc([C@H](CC1CC1)NC(=O)c1cnc(C(F)F)cn1)n2C(C)C [Example 11, N-[(1S)-1-[6-cyano-7-methyl-3-(propan-2-yl)-3H-imidazo[4,5-b]pyridin-2-yl]-2-cyclopropylethyl]-5-(difluoromethyl)pyrazine-2-carboxamide]"
3,7 nM,"Cc1c(C#N)cnc2c1nc([C@@H](NC(=O)c1cnc(C(F)F)cn1)[C@H]1CCCO1)n2C(C)C [Example 17, N-[(R)-[6-cyano-7-methyl-3-(propan-2-yl)-3H-imidazo[4,5-b]pyridin-2-yl][(2R)-oxolan-2-yl]methyl]-5-(difluoromethyl)pyrazine-2-carboxamide]"
4,7 nM,"Cc1cnc(C(=O)N[C@@H](C[C@H]2CCCO2)c2nc3c(C)c(C#N)cnc3n2C(C)C)cn1 [Example 18, N-[(1S)-1-[6-cyano-7-methyl-3-(propan-2-yl)-3H-imidazo[4,5-b]pyridin-2-yl]-2-[(2R)-oxolan-2-yl]ethyl]-5-methylpyrazine-2-carboxamide]"
5,41 nM,"O=C(N[C@H](c1nc2cnc(C(F)(F)F)cc2n1CC(F)F)C1CC1)c1cnc(C(F)F)cn1 [Example 46, N-[(S)-cyclopropyl[1-(2,2-difluoroethyl)-6-(trifluoromethyl)-1H-imidazo[4,5-c]pyridin-2-yl]methyl]-5-(difluoromethyl)pyrazine-2-carboxamide]"
6,9 nM,"Cc1cnc(C(=O)N[C@H](c2nc3c(C)c(C#N)cnc3n2C(C)C)[C@@H](C)OC(F)F)cn1 [Example 21, N-[(1R,2R)-1-[6-cyano-7-methyl-3-(propan-2-yl)-3H-imidazo[4,5-b]pyridin-2-yl]-2-(difluoromethoxy)propyl]-5-methylpyrazine-2-carboxamide]"
7,31 nM,"CC(C)n1c([C@@H](NC(=O)c2cnc(C(F)F)cn2)C2CC2)nc2cc(C(F)(F)F)ncc21 [Example 27, N-[(S)-cyclopropyl[3-(propan-2-yl)-6-(trifluoromethyl)-3H-imidazo[4,5-c]pyridin-2-yl]methyl]-5-(difluoromethyl)pyrazine-2-carboxamide]"
8,8 nM,"CO[C@H](C)[C@H](NC(=O)c1cnc(C(F)F)cn1)c1nc2c(C)c(C#N)cnc2n1C(C)C [Example 19, N-[(1R,2R)-1-[6-cyano-7-methyl-3-(propan-2-yl)-3H-imidazo[4,5-b]pyridin-2-yl]-2-methoxypropyl]-5-(difluoromethyl)pyrazine-2-carboxamide]"
9,2 nM,"Cc1cnc(C(=O)N[C@@H](CC2CC2)c2nc3cc(C(F)(F)F)cnc3n2C(C)C)cn1 [Example 6, N-[(1S)-2-cyclopropyl-1-[3-(propan-2-yl)-6-(trifluoromethyl)-3H-imidazo[4,5-b]pyridin-2-yl]ethyl]-5-methylpyrazine-2-carboxamide]"
10,14 nM,"CC(C)n1c([C@@H](NC(=O)c2cnc(C(F)F)cn2)C2CCC2)nc2cc(C#N)cnc21 [Example 30, N-[(S)-[6-cyano-3-(propan-2-yl)-3H-imidazo[4,5-b]pyridin-2-yl](cyclobutyl)methyl]-5-(difluoromethyl)pyrazine-2-carboxamide]"
11,21 nM,"Cc1cnc(C(=O)N[C@H](c2nc3c(C)c(C#N)cnc3n2C(C)C)[C@H]2CCCO2)cn1 [Example 40, N-[(R)-[6-cyano-7-methyl-3-(propan-2-yl)-3H-imidazo[4,5-b]pyridin-2-yl][(2R)-oxolan-2-yl]methyl]-5-methylpyrazine-2-carboxamide]"
12,6 nM,"Cc1cnc(C(=O)N[C@H](c2nc3c(C)c(C#N)cnc3n2C(C)C)C2CCC2)cn1 [Example 15, N-[(S)-[6-cyano-7-methyl-3-(propan-2-yl)-3H-imidazo[4,5-b]pyridin-2-yl](cyclobutyl)methyl]-5-methylpyrazine-2-carboxamide]"
13,21 nM,"CO[C@H](C)[C@H](NC(=O)c1cnc(C)cn1)c1nc2c(C)c(C#N)cnc2n1C(C)C [Example 42, N-[(1R,2R)-1-[6-cyano-7-methyl-3-(propan-2-yl)-3H-imidazo[4,5-b]pyridin-2-yl]-2-methoxypropyl]-5-methylpyrazine-2-carboxamide]"
14,15 nM,"CC(C)n1c([C@@H](NC(=O)c2cnc(C(F)F)cn2)C2CC2)nc2cc(F)cnc21 [Example 32, N-[(S)-cyclopropyl[6-fluoro-3-(propan-2-yl)-3H-imidazo[4,5-b]pyridin-2-yl]methyl]-5-(difluoromethyl)pyrazine-2-carboxamide]"
15,4 nM,"CO[C@H](C)[C@H](NC(=O)c1cnc(C)cn1)c1nc2cc(C(F)(F)F)cnc2n1C(C)C [Example 12, N-[(1R,2R)-2-methoxy-1-[3-(propan-2-yl)-6-(trifluoromethyl)-3H-imidazo[4,5-b]pyridin-2-yl]propyl]-5-methylpyrazine-2-carboxamide]"
16,3 nM,"Cc1cnc(C(=O)N[C@H](c2nc3ccc(C(F)(F)F)nc3n2C(C)C)C2CC2)cn1 [Example 8, N-[(S)-cyclopropyl[3-(propan-2-yl)-5-(trifluoromethyl)-3H-imidazo[4,5-b]pyridin-2-yl]methyl]-5-methylpyrazine-2-carboxamide]"
17,4 nM,"Cc1cnc(C(=O)N[C@H](c2nc3cc(Cl)cnc3n2C(C)C)C2CC2)cn1 [Example 10, N-[(S)-[6-chloro-3-(propan-2-yl)-3H-imidazo[4,5-b]pyridin-2-yl](cyclopropyl)methyl]-5-methylpyrazine-2-carboxamide]"
18,2 nM,"COC(C)(C)[C@H](NC(=O)c1cnc(C)cn1)c1nc2c(C)c(C#N)cnc2n1C(C)C [Example 2, N-[(IR)-1-[6-cyano-7-methyl-3-(propan-2-yl)-3H-imidazo[4,5-b]pyridin-2-yl]-2-methoxy-2-methylpropyl]-5-methylpyrazine-2-carboxamide]"
19,19 nM,"Cc1cnc(C(=O)N[C@@H](C[C@@H]2CCCO2)c2nc3c(C)c(C#N)cnc3n2C(C)C)cn1 [Example 38, N-[(1S)-1-[6-cyano-7-methyl-3-(propan-2-yl)-3H-imidazo[4,5-b]pyridin-2-yl]-2-[(2S)-oxolan-2-yl]ethyl]-5-methylpyrazine-2-carboxamide]"
20,18 nM,"O=C(N[C@H](c1nc2cc(C(F)(F)F)ncc2n1CC(F)F)C1CC1)c1cnc(C(F)F)cn1 [Example 35, N-[(S)-cyclopropyl[3-(2,2-difluoroethyl)-6-(trifluoromethyl)-3H-imidazo[4,5-c]pyridin-2-yl]methyl]-5-(difluoromethyl)pyrazine-2-carboxamide]"
21,3 nM,"COC(C)(C)[C@H](NC(=O)c1cnc(C)cn1)c1nc2cc(Cl)cnc2n1C(C)C [Example 9, N-[(1R)-1-[6-chloro-3-(propan-2-yl)-3H-imidazo[4,5-b]pyridin-2-yl]-2-methoxy-2-methylpropyl]-5-methylpyrazine-2-carboxamide]"
22,48 nM,"CCn1c([C@@H](NC(=O)c2cnc(C(F)F)cn2)C2CC2)nc2cc(C(F)(F)F)ncc21 [Example 48, N-[(S)-cyclopropyl[3-ethyl-6-(trifluoromethyl)-3H-imidazo[4,5-c]pyridin-2-yl]methyl]-5-(difluoromethyl)pyrazine-2-carboxamide]"
23,18 nM,"Cc1c(C#N)cnc2c1nc([C@@H](NC(=O)c1cnc(C(F)F)cn1)[C@@H]1CCCO1)n2C(C)C [Example 36, N-[(R)-[6-cyano-7-methyl-3-(propan-2-yl)-3H-imidazo[4,5-b]pyridin-2-yl][(2S)-oxolan-2-yl]methyl]-5-(difluoromethyl)pyrazine-2-carboxamide]"
24,5 nM,"Cc1cnc(C(=O)N[C@@H](CC2CC2)c2nc3c(C)c(C#N)cnc3n2C(C)C)cn1 [Example 14, N-[(1S)-1-[6-cyano-7-methyl-3-(propan-2-yl)-3H-imidazo[4,5-b]pyridin-2-yl]-2-cyclopropylethyl]-5-methylpyrazine-2-carboxamide]"
